Columns and labels:
[1] = Difference in specific enthalpy and specific entropy (solid solution minus unmixed components) from DSC specific heats; type: physicochemical; settings: indomethacin 2.5% by weight with PVP-K30
From the text: In practice, there is a lower limit to the temperature at which thermal analysis instruments such as DSC can provide accurate experimental data. As a result, it is not possible to experimentally obtain the necessary specific heats over all temperatures down to absolute zero, but instead they only be evaluated to a minimum temperature, denoted by Tmin. The experimental data can be used to construct a temperature-dependent difference in specific heats, denoted as ΔCP, which is defined as the difference between the specific heat of the solid solution minus the specific heat of the unmixed components in the same ratio, over the temperature range of Tmin to any higher temperature T for which experimental specific heat data is available. This is given by Δ[…]) (29) Because of the thermal analysis instrument limitations, ΔCP provides no data between absolute zero and Tmin, so it is necessary to estimate the values of specific heat differences at temperatures below Tmin. One way to do this is to extrapolate the plot of the experimentally obtained ΔCP vs. the temperature from Tmin to absolute zero. This can be done as follows. • Obtain the experimental values for ΔCP from Tmin up to at least temperature Tat which the solubility of the drug in the polymer is to be evaluated. • Construct an approximating function Δc that is a function of the temperature, which will be used to estimate ΔCP at temperatures lower than Tmin. • Fit the function Δc to the experimental values of ΔCP from Tmin to T using any appropriate method, such as linear or nonlinear regression. • Using the fitted equation for Δc, calculate values of Δc over temperatures from absolute zero to Tmin. These values will be used as substitutes for experimental specific heat difference for temperatures below Tmin. There is no theoretical model or equation that dictates the mathematical form of Δc, and more than one functional form can be chosen. […] One preferred form would be a sum of a constant plus exponentials, such as Δ[…]) (30) where a0, a1 . . . a8 are temperature independent parameters with values that can be determined or fit by nonlinear regression or other methods so Eq. (30) will be a good approximation to the experimental ΔCP vs. temperature data over the experimental temperature range. […] (The value for a4 was not determined because the coefficient multiplying the exponential a3 was zero. […] Using the values Δc calculated from Eq. (34) for temperatures from 0 to […], and the experimental values of ΔCP, values of Δ[…] calculated from Eq. (31) and (32), respectively, for various temperatures. For this combination of indomethacin and PVP-K30, the calculated specific enthalpy values at -10° C. and 25° C.

[2] = 25° C.
Protocol: The drug indomethacin and the polymer PVP-K30 were taken in various ratios, corresponding to weight percentages of indomethacin in the mixture of 2.5%, 10%, 15%, and 20%. DSC was performed on the pure indomethacin and pure PVP-K30, and the specific heat for each was obtained as a function of the temperature over the range of 220K to 310K. The DSC instrument provided reliable data as low as 220K, which was taken as Tmin. Solid solutions were formed by mixing the drug and polymer in a mortar and pestle, allowing them to stand at 130° C. (403 K) for 5 days, then allowing them to cool to room temperature. DSC was also performed to determine the specific heat of the solid solutions from 220K to 300K. All DSC was performed using a pinhole in the lid and was thus considered open pan, so the specific heats were considered to be obtained at constant pressure. All heating and cooling rates were 5° C. per minute. […]
The entire procedure was repeated for each indomethacin-PVP combinations (2.5% m 10%, 15% and 20% indomethacin by weight), including obtaining the adjustable parameters a0, a1 . . . a8 for each indomethacin/PVP-K30 combination. […] The values of ΔgSS at 25° C. were calculated for each drug-polymer ratio from Eq. (33), and subsequently used to calculate values of ΔgSS/f0.

[3] = indomethacin / PVP-K30 at 25° C.; cited from earlier work

COc1ccc2c(c1)c(CC(=O)O)c(C)n2C(=O)c1ccc(Cl)cc1 [indomethacin]
Δhheat (calculated specific enthalpy difference) ([1]; 25° C. (298 K)): 18.347 J/g
Δsheat (calculated specific entropy difference) ([1]; 25° C. (298 K)): 0.0787 J/K/g
Δhheat (calculated specific enthalpy difference) ([1]; −10° C. (263 K)): 9.66 J/g
Δsheat (calculated specific entropy difference) ([1]; −10° C. (263 K)): 0.0479 J/K/g
maximum stable weight fraction of indomethacin in PVP-K30 solid solution [2]: 15 % by weight
indomethacin weight fraction at minimum of ΔgSS/f0 ([2]; PVP-K30, FIG. 4): approximately 0.15
interaction parameter χ [3]: 0.747

Source: patent US9864847B2, “Method for predicting the solubility of a molecule in a polymer at a given temperature” (priority 2014, dated 2018)
